# Experiments:
# T. vaginalis [1] = assay: Pre-optimisation Mtz drug-sensitivity testing, 96-well, T. vaginalis; assay type: cell-based; details: Trichomonas vaginalis
# Protocol: (§1) For microtiter plate assays, trichomonads were grown in anaerobic conditions within GasPak EZ anaerobe pouches with fresh anaerobic sachets. Working reagent of the chromogen was phenol red (Sigma) in a 1% w/v working solution in phosphate buffered saline (PBS), which was filter sterilised. Chromogen absorbance was monitored at 570 nm on an absorbance microplate reader after plates were allowed to equilibrate in atmospheric conditions at room temperature for at least 5 min.
# (§2) After absorbances were measured, data were processed as followed unless indicated otherwise in the text. […] Prism 8 (GraphPad) was used to plot dose-response curves and calculate IC50 values, using a least squares regression, log[inhibitor] vs normalised response (variable slope, four parameters) model. Where replicate plates were used, data for dose-response curves were plotted as the mean±SD of these replicates.
# (§3) Trichomonad growth assays were assessed via Mtz drug-sensitivity testing in a medium throughput format (96-wells). Mtz was screened as two-fold, 10-point dilutions between 100 and 0.2 μM. For both T. foetus and T. vaginalis conditions were 5% (v/v) chromogen, well volumes of 100 μL and 200 μL and seeds of 10,000 and 20,000 cells/mL, and absorbance measured at 40 and 65 h. Mtz dose-response curves were plotted and Mtz IC50 calculated for both species, as well as the Z′ for each combination of conditions (volume, seed, timepoint) based on 4 technical replicates as described in Section 2.3.
# T. vaginalis [2] = assay: Medium-throughput (MTS) confirmatory dose-response growth assay, T. vaginalis; assay type: cell-based, Trichomonas vaginalis; details: Trichomonas vaginalis; 96-well, 10,000 cells/mL in 50 μL, 48 h, mean ± SEM; >10 = no appreciable activity at highest dose
# Protocol: as §1, §2
# (§4) A selection of 17 compounds assayed in the high-throughput screen (HTS) for T. vaginalis which were available through BioAustralis were obtained for validation of inhibitory in/activity in our optimised medium-throughput format. For this, a 10-point serial dilution was used for drug-susceptibility testing to calculate IC50 values of ‘hit’ compounds. Mtz was used as a positive control. Each screen was performed with 3 technical replicates and a minimum of 2 biological replicates in both T. vaginalis and T. foetus using assay conditions of seeds of 10,000 cells/mL in 50 μL, with absorbance measured at 48 h. Dose response curves and IC50 were calculated for each compound as described above in Section 2.3.
# T. foetus [3] = assay: Pre-optimisation Mtz drug-sensitivity testing, 96-well, T. foetus; assay type: cell-based; details: Tritrichomonas foetus
# Protocol: as §1, §2, §3
# T. foetus [4] = assay: Medium-throughput (MTS) confirmatory dose-response growth assay, T. foetus; assay type: cell-based, Tritrichomonas foetus; details: Tritrichomonas foetus; 96-well, 10,000 cells/mL in 50 μL, 48 h, mean ± SEM; >10 = no appreciable activity at highest dose
# Protocol: as §1, §2, §4
# T. vaginalis [5] = assay: Miniaturised Mtz drug-sensitivity assay, 384-well plates; assay type: cell-based; details: Trichomonas vaginalis
# Protocol: as §1, §2
# (§5) Miniaturised assay formats were assessed via Mtz drug-sensitivity for T. vaginalis in 96-well and 384-well plate formats using 5% (v/v) chromogen. For medium-throughput formats, seeds of 15,000 and 50,000 cells/mL were used in well volumes of 50 μL and 100 μL. For high-throughput formats, 25 μL well volumes were evaluated using seeds of 10,000, 20,000 and 40,000 cells/mL, while 50 μL well volumes used seeds of 5000, 10,000 and 20,000 cells/mL.
# T. vaginalis [6] = assay: Miniaturised Mtz drug-sensitivity assay, 96-well plates; assay type: cell-based; details: Trichomonas vaginalis
# Protocol: as §1, §2, §5
smiles,measurement,setting,value
Cc1ncc([N+](=O)[O-])n1CCO [Metronidazole],IC50,"T. vaginalis [1]; 40 h, Cα: 10 cells/µL, 100 µL, 40 h, read-out: Mtz IC50 T. vaginalis",1630 nM
same,IC50,"T. vaginalis [1]; 40 h, Cβ: 20 cells/µL, 100 µL, 40 h, read-out: Mtz IC50 T. vaginalis",2640 nM
same,IC50,"T. vaginalis [1]; 40 h, Cγ: 10 cells/µL, 200 µL, 40 h, read-out: Mtz IC50 T. vaginalis",1630 nM
same,IC50,"T. vaginalis [1]; 40 h, Cδ: 20 cells/µL, 200 µL, 40 h, read-out: Mtz IC50 T. vaginalis",2160 nM
same,IC50,"T. vaginalis [1]; 40 h, pre-optimisation, 40 h, read-out: Mtz IC50 T. vaginalis, across conditions",2000 ± 200 nM
same,IC50,"T. vaginalis [1]; 65 h, Cα: 10 cells/µL, 100 µL, 65 h, read-out: Mtz IC50 T. vaginalis",3090 nM
same,IC50,"T. vaginalis [1]; 65 h, Cβ: 20 cells/µL, 100 µL, 65 h, read-out: Mtz IC50 T. vaginalis",3210 nM
same,IC50,"T. vaginalis [1]; 65 h, Cγ: 10 cells/µL, 200 µL, 65 h, read-out: Mtz IC50 T. vaginalis",2670 nM
same,IC50,"T. vaginalis [1]; 65 h, Cδ: 20 cells/µL, 200 µL, 65 h, read-out: Mtz IC50 T. vaginalis",3190 nM
same,IC50,"T. vaginalis [1]; 65 h, pre-optimisation, 65 h, read-out: Mtz IC50 T. vaginalis, across conditions",3000 ± 100 nM
same,IC50,T. vaginalis [2],1.4 ± 0.2 µM
same,IC50,"T. foetus [3]; 40 h, Cα: 10 cells/µL, 100 µL, 40 h, read-out: Mtz IC50 T. foetus",1170 nM
same,IC50,"T. foetus [3]; 40 h, Cβ: 20 cells/µL, 100 µL, 40 h, read-out: Mtz IC50 T. foetus",1310 nM
same,IC50,"T. foetus [3]; 40 h, Cγ: 10 cells/µL, 200 µL, 40 h, read-out: Mtz IC50 T. foetus",1190 nM
same,IC50,"T. foetus [3]; 40 h, Cδ: 20 cells/µL, 200 µL, 40 h, read-out: Mtz IC50 T. foetus",1230 nM
same,IC50,"T. foetus [3]; 40 h, pre-optimisation, 40 h, read-out: Mtz IC50 T. foetus, across conditions",1200 nM
same,IC50,"T. foetus [3]; 65 h, Cα: 10 cells/µL, 100 µL, 65 h, read-out: Mtz IC50 T. foetus",2170 nM
same,IC50,"T. foetus [3]; 65 h, Cβ: 20 cells/µL, 100 µL, 65 h, read-out: Mtz IC50 T. foetus",2700 nM
same,IC50,"T. foetus [3]; 65 h, Cγ: 10 cells/µL, 200 µL, 65 h, read-out: Mtz IC50 T. foetus",2070 nM
same,IC50,"T. foetus [3]; 65 h, Cδ: 20 cells/µL, 200 µL, 65 h, read-out: Mtz IC50 T. foetus",2380 nM
same,IC50,"T. foetus [3]; 65 h, pre-optimisation, 65 h, read-out: Mtz IC50 T. foetus, across conditions",2300 ± 100 nM
same,IC50,T. foetus [4],1.2 ± 0.1 µM
same,IC50,"T. vaginalis [5]; 24 h, C5: 384-well, 250 cells/well, 25 µL, 24 h",1220 nM
same,IC50,"T. vaginalis [5]; 24 h, C6: 384-well, 500 cells/well, 25 µL, 24 h",2020 nM
same,IC50,"T. vaginalis [5]; 24 h, C7: 384-well, 1000 cells/well, 25 µL, 24 h",3210 nM
same,IC50,"T. vaginalis [5]; 24 h, C8: 384-well, 250 cells/well, 50 µL, 24 h",759 nM
same,IC50,"T. vaginalis [5]; 24 h, C9: 384-well, 500 cells/well, 50 µL, 24 h",1360 nM
same,IC50,"T. vaginalis [5]; 24 h, C10: 384-well, 1000 cells/well, 50 µL, 24 h",2330 nM
same,IC50,"T. vaginalis [5]; 36 h, C5: 384-well, 250 cells/well, 25 µL, 36 h",623 nM
same,IC50,"T. vaginalis [5]; 36 h, C6: 384-well, 500 cells/well, 25 µL, 36 h",888 nM
same,IC50,"T. vaginalis [5]; 36 h, C7: 384-well, 1000 cells/well, 25 µL, 36 h",1890 nM
same,IC50,"T. vaginalis [5]; 36 h, C8: 384-well, 250 cells/well, 50 µL, 36 h",672 nM
same,IC50,"T. vaginalis [5]; 36 h, C9: 384-well, 500 cells/well, 50 µL, 36 h",703 nM
same,IC50,"T. vaginalis [5]; 36 h, C10: 384-well, 1000 cells/well, 50 µL, 36 h",893 nM
same,IC50,"T. vaginalis [5]; 48 h, C5: 384-well, 250 cells/well, 25 µL, 48 h",1550 nM
same,IC50,"T. vaginalis [5]; 48 h, C6: 384-well, 500 cells/well, 25 µL, 48 h",2900 nM
same,IC50,"T. vaginalis [5]; 48 h, C7: 384-well, 1000 cells/well, 25 µL, 48 h",4310 nM
same,IC50,"T. vaginalis [5]; 48 h, C8: 384-well, 250 cells/well, 50 µL, 48 h",1340 nM
same,IC50,"T. vaginalis [5]; 48 h, C9: 384-well, 500 cells/well, 50 µL, 48 h",1500 nM
same,IC50,"T. vaginalis [5]; 48 h, C10: 384-well, 1000 cells/well, 50 µL, 48 h",3030 nM
same,IC50,"T. vaginalis [6]; 24 h, C2: 96-well, 50 cells/µL, 50 µL, 24 h",2180 nM
same,IC50,"T. vaginalis [6]; 24 h, C3: 96-well, 15 cells/µL, 100 µL, 24 h",2910 nM
same,IC50,"T. vaginalis [6]; 24 h, C4: 96-well, 50 cells/µL, 100 µL, 24 h",2230 nM
same,IC50,"T. vaginalis [6]; 36 h, C1: 96-well, 15 cells/µL, 50 µL, 36 h",1160 nM
same,IC50,"T. vaginalis [6]; 36 h, C2: 96-well, 50 cells/µL, 50 µL, 36 h",3740 nM
same,IC50,"T. vaginalis [6]; 36 h, C3: 96-well, 15 cells/µL, 100 µL, 36 h",1340 nM
same,IC50,"T. vaginalis [6]; 36 h, C4: 96-well, 50 cells/µL, 100 µL, 36 h",3450 nM
same,IC50,"T. vaginalis [6]; 48 h, C1: 96-well, 15 cells/µL, 50 µL, 48 h",1580 nM
same,IC50,"T. vaginalis [6]; 48 h, C2: 96-well, 50 cells/µL, 50 µL, 48 h",3490 nM
same,IC50,"T. vaginalis [6]; 48 h, C3: 96-well, 15 cells/µL, 100 µL, 48 h",1960 nM
same,IC50,"T. vaginalis [6]; 48 h, C4: 96-well, 50 cells/µL, 100 µL, 48 h",5010 nM

# — paper PMC7897990, “TriTOX: A novel Trichomonas vaginalis assay platform for high-throughput screening of compound libraries” (International Journal for Parasitology: Drugs and Drug …, 2021)
